# From PubChem BioAssay (NCI)
#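 96-well plates; 48 h exposure; 5 concentrations. Endpoints by linear interpolation between flanking doses. Not reached: highest tested concentration assigned. Here, GI50 denotes the concentration required for 50% inhibition of growth. The concentration for full growth arrest is given as TGI.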
# What was measured:
# Assay in all cases: inhibition of tumour cell growth, NCI panel, 48 h
# NCI-H460 lung = system: NCI-H460 lung
# MDA-MB-231 breast = system: MDA-MB-231 breast
# UACC-62 melanoma = system: UACC-62 melanoma
# K-562 leukemia = system: K-562 leukemia
# UACC-257 melanoma = system: UACC-257 melanoma
# KM12 colon = system: KM12 colon
# IGROV1 ovarian = system: IGROV1 ovarian
# MCF7 breast = system: MCF7 breast
# MALME-3M melanoma = system: MALME-3M melanoma
# SK-MEL-28 melanoma = system: SK-MEL-28 melanoma
SMILES,GI50 (NCI-H460 lung) [nM],TGI (NCI-H460 lung) [µM],GI50 (MDA-MB-231 breast) [µM],TGI (MDA-MB-231 breast) [µM],GI50 (UACC-62 melanoma) [µM],TGI (UACC-62 melanoma) [µM],GI50 (K-562 leukemia) [nM],TGI (K-562 leukemia) [µM],GI50 (UACC-257 melanoma) [µM],TGI (UACC-257 melanoma) [µM],GI50 (KM12 colon) [µM],TGI (KM12 colon) [µM],GI50 (IGROV1 ovarian) [µM],TGI (IGROV1 ovarian) [µM],GI50 (MCF7 breast) [µM],TGI (MCF7 breast) [µM],TGI (MALME-3M melanoma) [µM],TGI (SK-MEL-28 melanoma) [µM],GI50 (SK-MEL-28 melanoma) [µM],GI50 (MALME-3M melanoma) [µM]
NC(N)=N/N=C/c1c(-c2ccccn2)nc2sc(Cl)cn12,10200,50,5.64,11.7,8.01,14.9,3400,13.8,7.45,14.8,8.05,15.1,6.21,13.7,13.2,50,–,–,–,–
CC1(C)OC(=O)C=C([O-])O1.CC1(C)OC(=O)C=C([O-])O1.O=c1c(O)c(-c2ccc([O-])cc2[O-])oc2cc(O)cc(O)c12.[Ti+4],–,> 100,–,–,33.1,> 100,–,> 100,–,> 100,–,> 100,–,> 100,–,–,> 100,> 100,–,–
Oc1c2c(c(O)c3ccccc13)=N[C@@H](c1ccccc1)[C@H](c1ccccc1)N=2,–,> 100,–,–,–,> 100,–,> 100,–,> 100,–,> 100,–,> 100,–,–,> 100,> 100,–,–
COc1cc(/C=C/C(=N\NC(=O)c2ccccc2)c2sc(Nc3ccc(Cl)c(Cl)c3)nc2C)ccc1O,–,> 100,–,–,–,26.1,–,95.9,–,> 100,–,> 100,–,> 100,–,–,70.6,> 100,–,–
CCCS(=O)(=O)c1nc(NC2CC2)cc(-c2ccc3c(ccn3C3CC(C)(C)NC(C)(C)C3)c2)n1,1800,3.55,–,–,–,–,777,2.48,–,–,1.83,3.67,1.97,3.81,–,–,–,–,–,–
COc1cc(/C=C\c2ccc(O)cc2)cc(OC)c1OC,–,> 30,–,–,–,> 29.1,–,> 100,–,> 100,–,> 100,–,> 100,–,–,> 40.9,9.61,–,–
CCOc1cccc2nc3cccc(C(=O)NCCN(C)C)c3nc12,–,–,–,–,–,3.38,–,2.62,–,6.45,–,9.36,–,–,–,–,2.42,3.77,–,–
CCOC(=O)Cc1nc(/C(C#N)=C/c2ccco2)[nH]c(=O)c1C#N,–,> 100,–,–,–,> 100,–,> 100,–,> 100,–,> 100,–,> 100,–,–,–,–,–,–
CCOC(=O)/C(=C/c1ccco1)P(=O)(OCC)OCC,–,> 100,–,–,–,> 100,–,> 100,–,> 100,–,> 100,–,> 100,–,–,> 100,> 100,–,–
NS(=O)(=O)c1ccc(NC(=O)c2cccc3c(=O)c4ccccc4[nH]c23)cc1,–,> 100,–,–,–,> 100,–,> 100,–,> 100,–,73.6,–,> 100,–,–,94.8,> 100,–,–
N#Cc1c(N)c(C(=O)O)nn(-c2cccc(C(F)(F)F)c2)c1=O,–,> 100,–,–,–,> 100,–,> 100,–,–,–,> 100,–,> 100,–,–,> 100,> 100,–,–
NC(CCSCC(F)F)C(=O)O (centres undefined),–,> 100,–,–,–,> 100,–,> 100,–,> 100,–,> 100,–,> 100,–,–,> 100,> 100,–,–
Cc1cc(C)nc(NS(=O)(=O)c2ccc(Nc3c4ccccc4nc4c(C(=O)N5CCN(CCOS(C)(=O)=O)CC5)ccc(Cl)c34)cc2)n1,–,> 100,–,–,–,> 100,–,> 100,–,> 100,–,> 100,–,> 100,–,–,> 100,> 100,–,–
O=c1c2ccccc2c2c3c1cccc3c1cccc3c(=O)c4ccccc4c2c31,–,> 100,–,–,–,> 100,–,> 100,–,> 100,–,> 100,–,> 100,–,–,> 100,> 100,–,–
COc1ccc(C2=NC(C)(C)CO2)cc1,–,> 100,–,–,–,> 100,–,> 100,–,> 100,–,> 100,–,> 100,–,–,> 100,> 100,–,–
CC1(C)CCc2cc3c(cc2O1)OCCC3=O,–,> 100,–,–,–,> 100,–,> 100,–,> 100,–,> 100,–,> 100,–,–,> 100,–,–,–
O=C(c1ccccc1)[C@H]1Nc2cnccc2C2c3ccccc3CC21 (some centres undefined),–,33.9,–,–,–,> 58.8,–,15.6,–,26.1,–,> 61.3,–,> 58.6,–,–,27.4,18.9,–,–
COC(=O)/C(=N\NC(=S)NN)C(C(=O)C(=O)Nc1ccccc1C(N)=O)c1nc2ccccc2[nH]c1=O (centres undefined),–,–,–,–,–,> 100,–,> 100,–,> 100,–,> 100,–,> 100,–,–,> 100,> 100,–,–

SMILES,GI50 (NCI-H460 lung) [nM],TGI (NCI-H460 lung) [µM],GI50 (MDA-MB-231 breast) [µM],TGI (MDA-MB-231 breast) [µM],GI50 (UACC-62 melanoma) [µM],TGI (UACC-62 melanoma) [µM],GI50 (K-562 leukemia) [nM],TGI (K-562 leukemia) [µM],GI50 (UACC-257 melanoma) [µM],TGI (UACC-257 melanoma) [µM],GI50 (KM12 colon) [µM],TGI (KM12 colon) [µM],GI50 (IGROV1 ovarian) [µM],TGI (IGROV1 ovarian) [µM],GI50 (MCF7 breast) [µM],TGI (MCF7 breast) [µM],TGI (MALME-3M melanoma) [µM],TGI (SK-MEL-28 melanoma) [µM],GI50 (SK-MEL-28 melanoma) [µM],GI50 (MALME-3M melanoma) [µM]
N#CC(C#N)=Cc1cccc(Oc2ccccc2)c1,–,61,–,–,–,53.3,–,> 95.4,–,28.1,–,53.2,–,67,–,–,43.4,20,–,–
O=C1N[C@@H](O)[C@@H]2ON=C(c3ccccc3)[C@H]12,–,> 100,–,–,–,> 100,–,> 100,–,> 100,–,> 100,–,> 100,–,–,> 100,> 100,–,–
CN(C)c1nc(-c2cccs2)n2nc(-c3ccc(Cl)cc3)cc2n1,–,–,3.7,> 100,5.92,> 100,> 100000,> 100,–,–,> 100,> 100,5.28,> 100,> 100,> 100,–,> 100,> 100,–
COc1ccc(C(=O)C(C(=O)CCC(=O)Nc2cccc(C(F)(F)F)c2)c2ccccc2)cc1 (centres undefined),–,> 100,–,–,–,> 100,–,> 100,–,> 100,–,> 100,–,> 100,–,–,> 100,> 100,–,–
CN1CCN(C)C1c1cccc(C2N(C)CCN2C)c1,–,> 100,–,–,–,> 100,–,> 100,–,–,–,> 100,–,> 100,–,–,–,> 100,–,–
COc1ccc(C2C(N)=NCC2c2ccccn2)cc1 (centres undefined),–,> 100,–,–,–,> 100,–,> 100,–,> 100,–,> 100,–,> 100,–,–,> 100,> 100,–,–
CC/C=C\C/C=C\C1CC(=O)NCCCNCCCCN1 (centres undefined),–,> 100,–,–,–,–,–,–,–,> 100,–,> 100,–,–,–,–,78.9,> 100,–,–
CC1CCCC(C(=O)/C(=C/c2cccc(Cl)c2)C(=O)C(=O)O)C1 (centres undefined),–,> 100,–,–,–,> 100,–,47.4,–,> 100,–,30.6,–,83.5,–,–,> 100,> 100,–,–
c1cc[c]([Sn]([S]c2cccc3cccnc23)([c]2ccccc2)[c]2ccccc2)cc1,14.3,0.033,–,–,0.0352,0.162,–,–,–,–,–,–,0.0943,0.351,–,–,–,0.15,0.0364,–
Clc1ccc(CNc2nc3ccccc3nc2-c2cccs2)c(Cl)c1,–,> 100,–,–,–,–,–,> 100,–,> 100,–,–,–,–,–,–,> 100,> 100,–,–
C=C(COC(C)=O)CC(/C=C(\C)CCC=C(C)C)OC(C)=O (centres undefined),–,> 100,–,–,–,> 100,–,> 100,–,–,–,> 100,–,> 100,–,–,–,> 100,–,–
CC(O)CN1C(=O)NC(Cc2ccccc2)C1=O (centres undefined),–,> 100,–,–,–,–,–,–,–,> 100,–,> 100,–,–,–,–,–,> 100,–,–
COc1ccc(-c2cc(-c3cc(Cl)ccc3Cl)nc3nc(=S)[nH]c(N)c23)cc1,47600,> 100,3.62,19.8,6.94,> 100,–,–,–,–,26.8,> 100,9.34,> 100,20.1,> 100,–,> 100,99.3,–
Cc1ccc(-c2nc(C(Cl)Cl)n3nc(-c4ccccc4)cc3n2)cc1,273,1.05,0.21,0.678,–,–,1070,> 100,–,–,–,–,0.711,> 100,–,–,> 100,–,–,> 100
c1ccc2c(c1)N=C(c1cccc3ccccc13)CC(c1cccc3ccccc13)S2 (centres undefined),–,19.5,–,–,–,19.8,–,6.32,–,31.8,–,9.6,–,19.7,–,–,28.7,25.9,–,–
CC(=O)OCCOCBr,–,> 100,–,–,–,> 100,–,> 100,–,> 100,–,> 100,–,> 100,–,–,> 100,> 100,–,–
NC1=NC(=O)C(CC(=O)Nc2ccc([N+](=O)[O-])cc2[N+](=O)[O-])S1 (centres undefined),–,> 100,–,–,–,> 100,–,–,–,> 100,–,> 100,–,> 100,–,–,> 100,> 100,–,–
CC(=O)c1c(C)n([O-])c2cc(C)c(C)cc2[n+]1=O,–,> 100,–,–,–,> 100,–,> 100,–,> 100,–,> 100,–,> 100,–,–,> 100,> 100,–,–
